Assay: in vitro
Details: human, hela cells, % viability

Compound | viability at 28.5 h, 10 µM [%]
COc1ccc2c(c1)sc1ncc(C#N)n12 [CBK016716] | 87.9
CC(C)c1c(N)nc(SCc2ccccc2)nc1Cl [CBK016721] | 123
CC(C)(C)OC(=O)N(CCCN1CCN(c2ccc(F)cc2)CC1)c1ccccc1 [CBK016723] | 89.2
CCN(CC)CCOC1CCc2ccccc2CC1 [CBK016730C] | 96.7
O=c1[nH]c2ccncc2c2ccccc12 [CBK016740C] | 92
C[C@@H]1CN(C(=O)c2cc3c(C(=O)OC(C)(C)C)ncn3c3ccc(Cl)cc23)C[C@H](C)N1 [CBK016744] | 115
CSc1[nH]nc(N)c1-c1ccc([N+](=O)[O-])cc1 [CBK016751] | 88
CC(C)(C)c1cc(N)c(C(N)=O)s1 [CBK016752] | 91.3
c1ncn(C2CCCCC2)c1C1CCCCC1 [CBK016758] | 101
CCC(Cc1ccccc1C)c1cc(O)c(C(c2ccccc2)C2CC2)c(=O)o1 (centres unmarked) [CBK016783] | 98.3
CC(C)Nc1cccnc1N(C)C1CCN(C(=O)c2cc(Br)c[nH]2)CC1 [CBK016797] | 105
c1nc(N2CCOCC2)c2cn[nH]c2n1 [CBK016811] | 86.3
CCCCC(Sc1nc(N)cc(Cl)n1)c1cc(C)ccn1 (centres unmarked) [CBK016827] | 106
CC(C)(C)OC(=O)N1CCN(CCOc2ccc(NC(=O)OCc3ccccc3)cc2F)CC1 [CBK016854] | 108
CC(C)CNc1n[nH]c(=S)s1 [CBK016865] | 95.9
O=C1O[C@@H](CO)CN1c1ccc(N(Cc2ccccc2)Cc2ccccc2)c(F)c1 [CBK016873] | 103
Cc1ccc(Cl)cc1NC(=O)OCCN(C)C [CBK016906] | 98.3
NS(=O)(=O)c1ccccc1NC(=O)NC1CCCCC1 [CBK016919] | 93.4
FC(F)(F)c1cc(NCCC2CCCCN2)cc(C(F)(F)F)c1 (centres unmarked) [CBK016963] | 88.6
O=C(Nc1ccccc1)Nc1ccc([N+](=O)[O-])cc1 [CBK016975] | 99.6
CSc1[nH]nc(-c2ccc(C(C)(C)C)cc2)c1C#N [CBK016999] | 108
CCCSc1scc2c1-c1n[nH]cc1CC2 [CBK017006] | 99.3
O=S(=O)(Nc1cccc2nsnc12)c1cccs1 [CBK017018] | 75.6
NCCSc1cc(C(F)(F)F)nc2ccccc12 [CBK017035] | 81.9

Compound | viability at 28.5 h, 10 µM [%]
O=C(O)CC/C(=N\Nc1ccc([N+](=O)[O-])cc1)c1ccc(F)cc1 [CBK017075] | 110
CC(C)Nc1ncnc2scc(-c3cccs3)c12 [CBK017085] | 85.9
CCN(CC)CCCC(C)Nc1ccnc2cc(Cl)ccc12 (centres unmarked) [CBK017143] | 85.6
Nc1ccc2nc(-c3ccccn3)[nH]c2c1 [CBK017167] | 100
CC(C)c1c(SCCN)[nH]c2ccccc12 [CBK017265C] | 96
NC(=O)c1cc(C(=O)c2ccccc2F)c[nH]1 [CBK017284] | 112
CS(=O)(=O)c1nc(-c2ccccc2)ns1 [CBK017338] | 90.6
CC1=NN(c2cccc(S(=O)(=O)O)c2C(=O)Nc2ccccc2)C(=O)C1 [CBK017343] | 98.4
Nc1ncnc(Nc2cccc(C(F)(F)F)c2)n1 [CBK017403] | 82.4
CC(C)(C)NC(=O)N/N=C/c1[nH]ncc1Br [CBK017439] | 96
O=S(=O)(Nc1cccc(Cl)c1Cl)c1ccc(Cl)c(Cl)c1 [CBK017446] | 79.2
N#Cc1sc(NC(=O)c2cccc(Br)c2)nc1Cl [CBK017468] | 45.4
CCCSc1cc(=O)oc2ccccc12 [CBK017493] | 87.3
Nc1ccc2c(O)c(C(=O)NCc3ccc(Cl)cc3)c(=O)[nH]c2c1 [CBK017557] | 91.4
C[S+]([O-])CCn1c2ccccc2c2c(N3CCCC3)nc(N3CCCC3)nc21 (centres unmarked) [CBK017586] | 91.9
O=C(NCc1ccc(Cl)cc1)c1c(O)c2cc(NS(=O)(=O)c3ccccc3)ccc2[nH]c1=O [CBK017589] | 94.4
CC(C)(C)c1ccc2c(c1)C(CCCCN1CCCC1)(c1ccccc1)C(=O)O2 (centres unmarked) [CBK017654C] | 102
NC(=O)c1ccc2[nH]c(-c3cscn3)nc2c1 [CBK017800] | 86
COc1ccc2c(c1Br)C=C(n1ccnc1)CC2 [CBK017808] | 76.9
Oc1cccc2ccc(-n3ccnc3)nc12 [CBK017812] | 79.3
Cc1ccc(N)c(C(=O)CCC(=O)O)c1 [CBK017815C] | 92.1
COc1ccc2[nH]cc(/C=C3\C(=O)Nc4ncccc43)c2c1 [CBK017826] | 88.3
C[C@@H]1CC(=O)CCC1NC(=O)c1ccccc1 (some centres unmarked) [CBK017832] | 88.4
CN(C)c1ccc(C(=O)N2CC(=O)Nc3ccccc32)cc1 [CBK017839] | 89.2

Compound | viability at 28.5 h, 10 µM [%]
COC(=O)C[C@@H](C)NC(=O)[C@](OC)(c1ccccc1)C(F)(F)F [CBK017864] | 98.6
CCCN(CCC)CCc1cccc2c1CCN2C(=O)c1cc2ccccc2s1 [CBK017871C] | 93.2
COC(=O)c1ccc2cccnc2c1O [CBK017876] | 90.9
O=C(Nc1ccc(Cl)cc1)N1CCN(CCCCc2ccc(F)cc2)CC1 [CBK017951C] | 111
NC(=O)c1ccc(Nc2cc(N)ncn2)cc1 [CBK017969] | 94.1
Cc1cc(C)c2nc(O)nc(O)c2c1 [CBK017986] | 94.4
CC(=S)NCC1CC(c2ccc(N3CC[S+]([O-])CC3)c(F)c2)=NO1 (centres unmarked) [CBK017992] | 110
O=C(NCc1ccc(Cl)cc1)c1cnc2ccc(CN3CCSCC3)cc2c1O [CBK018010] | 97.9
Fc1cc2c3c(c1)c1c(n3CCO2)CCNCC1 [CBK018018C] | 102
Cn1cnnc1SCc1nc(N)nc(Nc2ccccc2)n1 [CBK018022] | 106
CCN(CC)CCNC(=O)c1c(C)oc2cc(Br)c(OC)cc12 [CBK018064] | 87.3
CC(C)(C)C(=O)Nc1cccc(OC(F)(F)C(F)Cl)c1 (centres unmarked) [CBK018091] | 95
Cc1nc2ccccc2[nH]/c1=N/O [CBK018103] | 104
CCOC(=O)c1nnc(-c2cccs2)nc1NC1CCCCC1 [CBK018110] | 86.8
CC(C)Oc1cc(NC(=O)CS(=O)(=O)CC(=O)N(C)C)c(Cl)cc1Cl [CBK018112] | 113
CC12CCC(C(=O)Nc3ccccc3)(OC1=O)C2(C)C (centres unmarked) [CBK018129] | 96.4
COCc1cc(C)nc2sc(C(N)=O)c(N)c12 [CBK018149] | 93
O=c1[nH]c2cc3nn[nH]c3cc2[nH]1 [CBK018154] | 99.9
Sc1nnc2sc3ccccc3n12 [CBK018156] | 103
Cc1ccc(-c2ccc(/C=C/c3cc(C(F)(F)F)nc(=O)[nH]3)o2)cc1Cl [CBK018169] | 103
COc1ccc2cc(/C=N/NC(=O)CN3CCCCC3)c(Cl)nc2c1 [CBK018181] | 95.3
Cc1cc(C)c2nn[nH]c2c1CN1CCCC1 [CBK018196] | 100
O=C(NCCCO)c1c(O)c2ccccc2[nH]c1=O [CBK018215] | 71.7
Cc1sc2nc(NCCO)nc(O)c2c1C [CBK018257] | 86.9

Compound | viability at 28.5 h, 10 µM [%]
CCOC(=O)NC(=S)NCCCn1ccnc1 [CBK018272] | 112
CSc1nc(N)c2c3c(sc2n1)CN(C)CC3 [CBK018303] | 122
O=C(OCc1nc2cc3ccccc3cc2[nH]1)C1CCCCC1 [CBK018307] | 94
Cc1c2cn[nH]c(=O)c2c(C)n1-c1ccccc1 [CBK018349] | 98.3
CCOC(=O)c1ccc(NC(=S)NCCN(CC)CC)cc1 [CBK018358] | 104
Cc1cc2c3c(c1)c1c(n3CCC2)CCNCC1 [CBK018380C] | 96.9
Cc1ncccc1Oc1ccc(NC(=O)N2CCc3ccccc3CC2)cn1 [CBK018383] | 96.6
COc1ccccc1N/C(=N\OCc1ccc(Cl)cc1Cl)c1nonc1N [CBK018391] | 91
O=S1(=O)C=C(c2ccc(Cl)cc2)S(=O)(=O)CC1 [CBK018403] | 86.3
CCOC(=O)c1cnc2ccc(C(CCOCc3ccccc3)OCc3ccccc3)cc2c1O (centres unmarked) [CBK018405] | 93.8
Fc1cc2c3c(c1)c1c(n3CCC2)CCNCC1 [CBK018406C] | 105
NC1=C(N)OC(Oc2ccccc2C(F)(F)F)=NN1 [CBK018424] | 57.2
Clc1ccc(-c2cc(CN3CCCCC3)no2)cc1Cl [CBK018435] | 102
O=S(=O)(c1ccccc1)c1ccc(N2CCNCC2)cc1 [CBK018452] | 97.8
CCCN1CCC(N2CCN(c3ccc([N+](=O)[O-])cc3)CC2)CC1 [CBK018459] | 96.3
CCOC(=O)c1cnc(C(C)(C)C)nc1O [CBK018470] | 88.6
COc1ccccc1C(=O)NC1CN2CCC1CC2 (centres unmarked) [CBK018475C] | 75.5
O=C(NCc1ccc(Cl)cc1)c1cn(-c2ccccc2)c2ccc(CN3CCOCC3)cc2c1=O [CBK018481] | 98.7
CSC(=S)n1c(C)nc2ccccc21 [CBK018539] | 92.3
CC1(C)CN(c2ccc(Cl)cn2)C1=O [CBK018550] | 93.6
COc1ccnc(Sc2ccc(Cl)cc2)c1C#N [CBK018571] | 92.2
CC(=O)c1c2c(c(N3CCN(C#N)CC3)[nH]c1=S)CC(C)(C)OC2 [CBK018622] | 86.3
COC(=O)NC(=S)Nc1ccc2c(c1)OCCO2 [CBK018644] | 79
S=c1ccc(N/N=C/C2CC=CCC2)n[nH]1 (centres unmarked) [CBK018655] | 95.3

Same assay, conditions: human, hela cells, % viability, bulk resorufin, single well

Compound | viability at 28.5 h, 10 µM [%]
O=C(NO)Nc1ccc(Cl)c(Cl)c1 [CBK016929] | 96.3
O=C1NC(=O)C(=Cc2ccc([N+](=O)[O-])o2)C(=O)N1 [CBK017848] | 106

Reference: paper PMC12040169 (PLOS Biology, 2025)
